Here are results for four compounds from patent US6121463A, “Alkyl-4-silylheterocyclic phenols and thiophenols useful as antioxidant agents” (priority 1998, dated 2000).

One data set relates to ICAM-1. The note with it: vascular endothelial cells; Mauri, N. et al.; cited from earlier work.
A short description of data set [1]: Animal parameters in male Sprague-Dawley rats. The format is in vivo, Sprague-Dawley rat. To be noted: 0.3% diet, 4 days; for body wt. as a percent of control / food (grams eaten per day per rat) as a percent of control / lw/bw (liver weight/body weight) as a percent of control: N=5; for mortality at 96 h: rat, in vivo, po, N=5, read-out: mortality (deaths per group). An excerpt:
(§1) A typical experiment consists of 4-6 groups of rats (N=5 per group) with 1 group being a control which receives no MDL compound and the other groups being treated with 0.3% MDL compound. Some of the compounds are either repeated at 0.3% or evaluated again at the lower dose of 0.1%. House Male Sprague-Dawley rats, 50-100 g, (Harlan Laboratories, Indianapolis, Ind.) in groups of 5, feeding ad libitum water and Purina Rodent chow (#5002) with or without MDL compound as a dietary admixture for 4 days. Make dietary admixtures (0.3%) by mixing 1.2 grams of an MDL compound with 400 grams of Purina rodent chow (#5002). Mix the MDL compound with approximately 50 grams of food using a mortar and pestle. This is added to the remainder of the food and mixed for 3 hours on a rotary mixer. In the morning of day 5, anesthetize non-fasted rats with carbon dioxide, and collect blood by cardiac puncture. Sacrifice rats by cervical dislocation. Record body weights and liver weights in grams. Record food consumption as grams.cndot.day^-1 .cndot.rat^-1. Deaths are recorded as mortality. Use aliquots of fresh serum for clinical chemistries, thiobarbituric acid reactive substances (TBARS) and conjugated diene measurements. Freeze aliquots of serum (~0.5mL) and whole livers at -20° C. for compound and metabolite concentration determination at a later time.

Data set [2] concerns oxidation of serum lipids. As to the kind of experiment: Thiobarbituric acid reactive substances (TBARS) assay in serum of treated rats. The format is in vivo, Sprague-Dawley rat. The note with it: 0.3% diet, 4 days, male rats, N=5; CuSO4 oxidation of serum, 37° C., 3 hr.
Text: as §1, with “Sacrifice rats by cervical dislocation. Record body weights and liver weights in grams. Record food consumption as grams.cndot.day^-1 .cndot.rat^-1.” left out, “Use aliquots of fresh serum for clinical chemistries, thiobarbituric acid reactive substances (TBARS) and conjugated diene measurements. Freeze aliquots of serum (~0.5mL) and whole livers at -20° C. for compound and metabolite concentration determination at a later time.” left out
In this assay the oxidation of serum lipids is initiated with CuSO4, resulting in the formation of aldehydes, such as malondialdehyde (MDA). Upon incubation with thiobarbituric acid, the absorbance of the aldehydes can be detected at 530-540 nm. […] Measure absorbances at 540 nm using a Biotek model EL311 microplate reader. The nmoles of MDA produced are calculated from a standard curve of 0 to 10 nmoles of MDA prepared from malonaldehyde bis(dimethylacetal). […]

The nature of data set [3]: Serum clinical chemistries in male Sprague-Dawley rats after dietary admixture. The format is in vivo, Sprague-Dawley rat. To be noted: 0.3% diet, 4 days, N=5.
Text: as §1
Allow blood to clot at room temperature for 30 minutes. Obtain serum after centrifugation for 10 min at 4° C. at 3000 rpm in a Beckman J-6M/E centrifuge with a JS-4.2 rotor. Analyze fresh serum by a COBAS MIRA S autoanalyzer (Roche Diagnostics) using Roche diagnostic reagents for the following clinical chemistry measurements: alkaline phosphatase (ALP, kit #44553), alanine transaminase (ALT, kit #42375), aspartate aminotransferase (AST, kit #42381), total cholesterol (CHOL, kit #44334), triglyceride (TG, kit #44120), and glucose (GLU, kit #44558). Calculate ALP, ALT, and AST as units/L. Calculate cholesterol, triglycerides, and glucose as mg/dL.

The next data set has as its system oxidation of lipids. In words: Conjugated diene determination (lag phase) in pooled serum of treated rats. The format is in vivo, Sprague-Dawley rat. The note with it: 0.3% diet, 4 days; mean of 2 determinations of pooled samples, N=5; control = 61 min.
Text: as §1, with “Use aliquots of fresh serum for clinical chemistries, thiobarbituric acid reactive substances (TBARS) and conjugated diene measurements. Freeze aliquots of serum (~0.5mL) and whole livers at -20° C. for compound and metabolite concentration determination at a later time.” left out
Conjugated diene lag phase is another indicator of the oxidation of lipids. […] Measure the absorbances of all cuvettes and set the instrument baseline to zero using the lowest absorbing sample. […] Record the absorbance of each cuvette at 2 min intervals for a period of 840 min. […]

As for `S=C(S)N1CCCC1` [pyrollidine dithiocarbamate], the “inhibition of cytokine-induced expression of ICAM-1” value with ICAM-1 is given as “but not ICAM-1”.
One may read the mortality as the percentage killed. Take `CC(C)(C)c1cc(OC[Si](C)(C)c2ccco2)cc(C(C)(C)C)c1O` [106,939]: in data set [1], the “body wt. as a percent of control” value is 92%, the “food (grams eaten per day per rat) as a percent of control” value turned out to be 88%, the “lw/bw (liver weight/body weight) as a percent of control” value was 130% and the mortality at 96 h was found to be 0%. In addition, in data set [2], the “TBARS (thiobarbituric acid reactive substances) as a percent of control” value is on record as 64%. In data set [3], the “ALP (alkaline phosphatase) as a percent of control” value came out at 123%, the “ALT (alanine aminotransferase) as a percent of control” value turned out to be 92%, the “AST (aspartate aminotransferase) as a percent of control” value is 106% and the “CHOL (total cholesterol) as a percent of control” value is 120%. In addition, in data set [3], the “GLUC (glucose) as a percent of control” value was determined as 83% and the “TRIG (triglycerides) as a percent of control” value is on record as 108%.
Turning to `CC(=O)N[C@@H](CS)C(=O)O` [N-acetylcysteine], the “inhibition of cytokine-induced expression of ICAM-1” value in the data set with ICAM-1 is given as “but not ICAM-1”.
Consider `CC(C)(C)c1cc(OC[Si](C)(C)c2cccs2)cc(C(C)(C)C)c1O` [107,965], for which, in data set [1], the “body wt. as a percent of control” value is 84%, the “food (grams eaten per day per rat) as a percent of control” value was 84%, the “lw/bw (liver weight/body weight) as a percent of control” value was determined as 118% and the mortality at 96 h turned out to be 0%. In data set [2], the “TBARS (thiobarbituric acid reactive substances) as a percent of control” value turned out to be 57%. For the same compound, in data set [3], the “ALP (alkaline phosphatase) as a percent of control” value was determined as 137%, the “ALT (alanine aminotransferase) as a percent of control” value stood at 96%, the “AST (aspartate aminotransferase) as a percent of control” value turned out to be 89% and the “CHOL (total cholesterol) as a percent of control” value was determined as 121%. In data set [3], the “GLUC (glucose) as a percent of control” value worked out at 86% and the “TRIG (triglycerides) as a percent of control” value was 90%. Moreover, the “CONJ. DIENE (conjugated diene lag phase)” value with oxidation of lipids stood at 273 min.
